We go through 11 compounds from PubChem BioAssay (NCI).

What all share (assay): growth of human tumour cells (NCI), 48 h
The test system of experiment [1] is SK-MEL-2 melanoma.
The test system of experiment [2] is LOX IMVI melanoma.
The test system of experiment [3] is EKVX NSCLC.
Experiment [4] relates to UACC-257 melanoma.
In experiment [5] the test system is NCI-H23 lung.
Experiment [6] has as its system SK-MEL-5 melanoma.
Experiment [7] has as its system BT-549 breast.
Experiment [8] relates to A549 NSCLC.
The test system of experiment [9] is HCT-116 colon.
Experiment [10] has as its system MCF7 breast.
Experiment [11] relates to COLO 205 colon.
In experiment [12] the test system is HL-60(TB) leukemia.
The subject of experiment [13] is OVCAR-4 ovarian.
The subject of experiment [14] is SK-MEL-28 melanoma.
The subject of experiment [15] is T-47D breast.
In experiment [16] the test system is MDA-MB-231 breast.

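Following 48 hours of exposure in 96-well plates, responses at five concentrations were used to interpolate endpoints linearly. TGI: concentration producing complete growth inhibition.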

Take `O=C(OCC1OC(c2nn[nH]n2)C(OC(=O)c2ccccc2)C1OC(=O)c1ccccc1)c1ccccc1` (stereo not given): the TGI in experiment [1], in experiment [2], in experiment [3], in experiment [4], in [5] and in experiment [6] was more than 100 µM each time. Also, the TGI in experiment [7], in experiment [8], in [9], in [10], in [11] and in experiment [12] was more than 100 µM throughout. In [13], this compound displayed a TGI of more than 100 µM.

Consider `COC(=O)CCn1cnc2c(SC)ncnc21`, for which the TGI in [2], in experiment [3], in [14], in [15], in experiment [4] and in experiment [5] was more than 100 µM each time. The TGI in experiment [6], in [8], in [9], in experiment [16], in experiment [10] and in [11] was more than 100 µM each time. The TGI in experiment [12] and in experiment [13] was more than 100 µM in each case.

For the compound `CN(C)c1nc(NN)c2c(-c3ccccc3)c(-c3ccccc3)oc2n1`, the TGI in experiment [2], in [3], in experiment [14], in experiment [15], in experiment [4] and in [5] was more than 100 µM each time. Moreover, the TGI in experiment [8], in experiment [9], in [16], in experiment [10], in experiment [11] and in experiment [13] was more than 100 µM throughout.

With `CC(CO)C1=CC(C#CCOCc2ccccc2)N(C(=O)Oc2ccccc2)c2ccccc21` (stereo not given), the TGI in experiment [1] was more than 100 µM; in experiment [2], more than 100 µM; in [3] it was 73 µM; in experiment [14], more than 100 µM; in experiment [15], more than 100 µM; in [4], 88.2 µM. Besides, the TGI in [5] was 39.8 µM; in [6], 74.5 µM; in [8], more than 100 µM; in experiment [9] it was more than 100 µM; in [16], more than 100 µM; in experiment [11] it was 28.4 µM. Moreover, the values for the TGI in experiment [12] and in experiment [13] were more than 100 µM and 20.7 µM, respectively.

In the case of `Cc1cccc(-c2cc(=S)c3cc(N4CCCC4)ccc3[nH]2)c1`, the TGI in experiment [1], in [2], in experiment [3], in experiment [14], in experiment [15] and in experiment [4] was more than 100 µM each time. Also, the TGI in experiment [6], in [8], in [9], in experiment [16], in [10] and in [11] was more than 100 µM each time. Besides, in experiment [13], the TGI was more than 100 µM.

In the case of `c1cncc(-c2ncc3cccnc3n2)c1`, the TGI in experiment [1], in experiment [2], in experiment [3], in experiment [4], in experiment [5] and in experiment [6] was more than 100 µM throughout. Also, the TGI in experiment [7], in experiment [8], in experiment [9], in [16], in experiment [10] and in experiment [11] was more than 100 µM throughout. The TGI in experiment [12] and in [13] was more than 100 µM each time.

Turning to `O=c1ccn2n1CCCCC2`, the TGI in experiment [1], in experiment [2], in experiment [3], in experiment [14], in [15] and in experiment [4] was more than 100 µM in each case. Besides, the TGI in [5], in experiment [6], in experiment [8], in experiment [9], in experiment [16] and in experiment [11] was more than 100 µM each time. Moreover, the TGI in experiment [12] and in [13] was more than 100 µM in each case.

For the compound `CC(NC(=O)OC(C)(C)C)C(=O)C(N)=O` (stereo not given), the TGI in experiment [1], in experiment [2], in experiment [3], in experiment [14], in [15] and in experiment [5] was more than 100 µM in each case. Further, the TGI in experiment [6], in experiment [8], in [9], in experiment [16], in [10] and in [11] was more than 100 µM each time. This compound also displayed a TGI in experiment [12] of more than 100 µM.

Take `CC(C)NCC(O)c1ccc(OCc2ccccc2)c(OCc2ccccc2)c1-c1ccccc1` (stereo not given): the TGI in [1] is 4.18 µM; in [2], 13.8 µM; in [3] it was 32.3 µM; in experiment [15], 7.53 µM; in experiment [4], 3.54 µM; in [6], 2.5 µM. For the same compound, the TGI in experiment [8] came out at 3.21 µM; in experiment [9], 3.17 µM; in experiment [16], 3.16 µM; in experiment [10], 3.22 µM; in experiment [11], 3.2 µM; in experiment [13], 3.79 µM.

On to `COP1(=O)Oc2ccccc2C(=O)C(C(F)(F)F)(C(F)(F)F)O1` (stereo not given), for which the TGI in experiment [1], in experiment [2], in experiment [3], in [14], in experiment [4] and in experiment [5] was more than 100 µM throughout. Moreover, the TGI in experiment [6], in experiment [8], in experiment [9], in experiment [11], in experiment [12] and in experiment [13] was more than 100 µM each time.

Regarding `O=S(CCCl)c1c2ccccc2nc2ccccc12` (stereo not given), the TGI in experiment [1], in experiment [2], in [3], in [14], in experiment [15] and in experiment [4] was more than 100 µM in each case. Further, the TGI in experiment [5], in experiment [8], in [9], in experiment [16], in [10] and in [11] was more than 100 µM throughout. Also, the TGI in experiment [12] and in experiment [13] was more than 100 µM each time.
